The text below walks through data of PubChem BioAssay (NCI).

Holding throughout (assay): DTP human tumour cell line panel, 48 h
The test system of test [1] is ACHN renal.
Test [2] concerns HOP-92 NSCLC.
The test system of test [3] is LOX IMVI melanoma.
The test system of test [4] is M14 melanoma.
Test [5] concerns MOLT-4 leukemia.
Test [6] relates to NCI-H460 lung.
The subject of test [7] is SF-539 CNS.
The test system of test [8] is SNB-19 CNS.
The subject of test [9] is UACC-62 melanoma.

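These data come from cells grown in 96-well plates and exposed to compound for 48 hours at five concentrations. Here, GI50 denotes the concentration required for 50% inhibition of growth. TGI marks complete inhibition of growth.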

For orientation: TGI means the concentration giving total growth inhibition. High values mean less potent growth arrest, low ones more potent growth arrest. As for `CCCCCCCCCCC(C)CCCCCCC(=O)O` (centres undefined), the total growth inhibition concentration (TGI) in test [1], in test [2], in test [3], in test [4], in test [5] and in test [6] was more than 100 µM throughout. Further, the TGI in test [7], in test [8] and in [9] was more than 100 µM in each case.
`O=C(CC/C(CC(=O)c1ccc(Br)cc1)=N\O)Nc1ccc(Cl)c(Cl)c1`: the TGI in test [1], in [2], in test [3], in [4], in [5] and in test [6] was more than 100 µM each time. Besides, the TGI in test [7] and in test [9] was more than 100 µM each time.
Usually GI50 stands for the concentration that inhibits growth by half. In the case of `CCC[CH2][Sn]1([CH2]CCC)[O]CC(C)[O]1` (centres undefined), the GI50 in [1] was 1.54 µM; in test [2], 1.16 µM; in test [3], 1.23 µM; in test [4], 1.87 µM; in [5], 0.56 µM; in test [6], 2.94 µM. For the same compound, the GI50 in [7] is 1.46 µM; in test [8], 1.32 µM; in [9] it was 1.31 µM. In addition, the TGI came out at 2.89 µM in test [1]; 2.52 µM in test [2]; 2.66 µM in test [3]; 4.87 µM in test [4]; 3 µM in [5]; 13.9 µM in test [6]. Moreover, the values for the total growth inhibition concentration (TGI) in test [7], in test [8] and in [9] were 3.46 µM, 2.64 µM and 2.91 µM, respectively.
Regarding `Brc1cc2c(cc1Br)CN(c1ccccc1)C2`, the concentration for total growth inhibition (TGI) in test [1], in test [2], in [3], in test [4], in test [5] and in test [6] was more than 100 µM in each case. Further, the TGI in test [7], in [8] and in test [9] was more than 100 µM throughout.
In the case of `Cc1cccc2c(O)cc(=O)oc12`, the TGI in test [1], in [3], in [4], in [5], in test [6] and in test [7] was more than 100 µM in each case. The concentration for total growth inhibition (TGI) in test [8] and in [9] was more than 100 µM in each case.
With `O=C1/C(=C/c2ccc(Br)cc2)CCC/C1=C\c1ccc(Br)cc1`, the TGI in [1] is 29.8 µM; in [4] it was 11.5 µM; in test [5] it was 23.5 µM; in [6], 28.8 µM; in test [7], 33.8 µM; in test [8], 46 µM. In addition, the TGI in test [9] was 39.9 µM.
Take `Cc1ccc(C(=O)CC2=Nc3nnc(CCCCCCCc4nnc5n4C(=O)C(CC(=O)c4ccc(C)cc4)=N5)n3C2=O)cc1`: the TGI in test [1], in [3], in test [4], in [5], in test [6] and in test [7] was more than 100 µM throughout. Further, the TGI in test [8] and in test [9] was more than 100 µM in each case.
For the compound `O=NN(CCCl)C(=O)NC1CCC(CC2CCC(NC(=O)N(CCCl)N=O)CC2)CC1` (centres undefined), the TGI is more than 100 µM in [1]; more than 76.6 µM in test [2]; 26.4 µM in test [3]; more than 100 µM in test [4]; 47.8 µM in [5]; more than 100 µM in test [6]. For the same compound, the TGI in test [7] was determined as 25 µM; in test [8], 49.1 µM.
For `CCN(CC)CCNC(=O)c1cccc2nc3ccccc3nc12`, the TGI in [1] is more than 100 µM; in [2], more than 73.4 µM; in test [3] it was 29.5 µM; in test [4], more than 48.7 µM; in [5] it was 37.3 µM; in test [7] it was 28.8 µM. Also, the TGI in [8] is more than 100 µM; in [9], 45.9 µM.
As to `CN(C)CC/C(=N\Nc1ccc(Cl)cc1Cl)c1ccccc1`, the TGI in test [1] stood at 29.4 µM; in test [3], 28 µM; in [4] it was 29.1 µM; in test [5], 42 µM; in test [6] it was 28.3 µM; in [7], 35 µM. For the same compound, the TGI in [8] is 30 µM; in test [9], 27.7 µM.
Regarding `O=C(CCC(=O)C1CCC/C1=N/O)Nc1ccc(Cl)cc1` (centres undefined), the concentration for total growth inhibition (TGI) in test [1], in test [2], in [4], in [5], in test [6] and in test [7] was more than 100 µM throughout. The TGI in test [8] and in test [9] was more than 100 µM in each case.
